Read-outs that look alike come from different tables or passages of the source.
How the values were obtained:
PAMPA permeability = format: in vitro ADME; conditions: read-out: PAMPA Pe
Plasma stability, human = format: in vitro ADME; conditions: 1:1 Plasma:PBS, 37° C.
panel of 68 receptors [1] = conditions: for Inhibition across off-target panel: duplicate, upper bound over all targets
Plasma stability, mouse = format: in vitro ADME; conditions: 1:1 Plasma:PBS, 37° C.
[2] = Plasma protein binding, human; format: in vitro ADME
panel of 68 receptors [3] = biological target: panel of 68 receptors (Homo sapiens, UniProt P35367); conditions: Histamine H1, hum, 10 μM
Sequence of panel of 68 receptors (Homo sapiens, UniProt P35367) (P35367 whole entry): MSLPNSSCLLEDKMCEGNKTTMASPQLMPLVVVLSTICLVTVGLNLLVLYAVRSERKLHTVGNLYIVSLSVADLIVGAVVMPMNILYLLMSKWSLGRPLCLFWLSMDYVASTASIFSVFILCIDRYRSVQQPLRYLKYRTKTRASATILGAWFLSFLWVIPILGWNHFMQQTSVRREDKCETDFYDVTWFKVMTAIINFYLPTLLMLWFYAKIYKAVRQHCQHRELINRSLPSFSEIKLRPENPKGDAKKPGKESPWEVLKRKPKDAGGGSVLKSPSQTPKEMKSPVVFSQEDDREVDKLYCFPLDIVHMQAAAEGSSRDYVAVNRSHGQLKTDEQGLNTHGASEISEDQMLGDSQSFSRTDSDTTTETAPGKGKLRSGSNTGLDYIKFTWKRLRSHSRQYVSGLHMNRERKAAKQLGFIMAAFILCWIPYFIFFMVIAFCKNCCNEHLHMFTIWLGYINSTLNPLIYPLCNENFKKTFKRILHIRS

panel of 68 receptors [4] = biological target: panel of 68 receptors (Homo sapiens, UniProt Q12809); conditions: Potassium Channel hERG, hum, 10 μM
panel of 68 receptors [5] = biological target: panel of 68 receptors (Homo sapiens, UniProt P46663); conditions: Bradykinin B1, hum, 10 μM
Sequence of panel of 68 receptors (Homo sapiens, UniProt P46663) (P46663 whole entry): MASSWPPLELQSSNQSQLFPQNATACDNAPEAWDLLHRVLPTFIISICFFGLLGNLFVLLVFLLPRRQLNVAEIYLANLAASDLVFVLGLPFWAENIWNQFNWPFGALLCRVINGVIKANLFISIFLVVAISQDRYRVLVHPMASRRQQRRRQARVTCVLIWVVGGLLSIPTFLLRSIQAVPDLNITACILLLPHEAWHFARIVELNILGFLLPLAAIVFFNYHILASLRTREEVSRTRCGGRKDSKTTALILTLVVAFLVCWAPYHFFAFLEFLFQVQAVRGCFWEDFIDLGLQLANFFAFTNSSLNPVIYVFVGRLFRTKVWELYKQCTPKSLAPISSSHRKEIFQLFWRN

panel of 68 receptors [6] = biological target: panel of 68 receptors (Homo sapiens, UniProt Q99720); conditions: Sigma σ1, hum, 10 μM
Sequence of panel of 68 receptors (Homo sapiens, UniProt Q99720) (Q99720 whole entry): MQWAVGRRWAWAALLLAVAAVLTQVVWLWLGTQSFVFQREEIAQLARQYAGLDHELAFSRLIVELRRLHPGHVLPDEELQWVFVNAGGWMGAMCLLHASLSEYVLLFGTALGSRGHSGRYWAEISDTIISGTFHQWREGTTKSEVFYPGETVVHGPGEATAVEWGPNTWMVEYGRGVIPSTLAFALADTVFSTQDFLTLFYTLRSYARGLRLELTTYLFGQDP

panel of 68 receptors [7] = biological target: panel of 68 receptors (Rattus norvegicus, UniProt P15823); conditions: Adrenergic α1B, rat, 10 μM
Sequence of panel of 68 receptors (Rattus norvegicus, UniProt P15823) (P15823 whole entry): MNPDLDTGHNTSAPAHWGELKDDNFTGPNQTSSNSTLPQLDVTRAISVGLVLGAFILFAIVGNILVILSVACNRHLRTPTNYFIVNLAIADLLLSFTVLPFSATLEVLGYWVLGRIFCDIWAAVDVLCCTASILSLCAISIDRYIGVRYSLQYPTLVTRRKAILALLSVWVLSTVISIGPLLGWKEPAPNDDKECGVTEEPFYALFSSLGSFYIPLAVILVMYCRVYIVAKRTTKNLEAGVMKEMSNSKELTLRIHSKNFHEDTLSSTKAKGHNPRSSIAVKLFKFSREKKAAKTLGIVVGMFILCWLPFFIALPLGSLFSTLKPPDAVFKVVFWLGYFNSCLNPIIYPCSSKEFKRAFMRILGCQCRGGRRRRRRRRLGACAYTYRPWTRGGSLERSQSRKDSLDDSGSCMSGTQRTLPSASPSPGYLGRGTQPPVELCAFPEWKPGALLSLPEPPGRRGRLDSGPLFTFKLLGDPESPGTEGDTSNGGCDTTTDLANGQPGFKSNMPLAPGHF

panel of 68 receptors [8] = biological target: panel of 68 receptors (Mus musculus, UniProt P13504); conditions: Interleukin IL-1, mouse, 10 μM
panel of 68 receptors [9] = biological target: panel of 68 receptors (Homo sapiens, UniProt P25103); conditions: Tachykinin NK1, hum, 10 μM
Sequence of panel of 68 receptors (Homo sapiens, UniProt P25103) (P25103 whole entry): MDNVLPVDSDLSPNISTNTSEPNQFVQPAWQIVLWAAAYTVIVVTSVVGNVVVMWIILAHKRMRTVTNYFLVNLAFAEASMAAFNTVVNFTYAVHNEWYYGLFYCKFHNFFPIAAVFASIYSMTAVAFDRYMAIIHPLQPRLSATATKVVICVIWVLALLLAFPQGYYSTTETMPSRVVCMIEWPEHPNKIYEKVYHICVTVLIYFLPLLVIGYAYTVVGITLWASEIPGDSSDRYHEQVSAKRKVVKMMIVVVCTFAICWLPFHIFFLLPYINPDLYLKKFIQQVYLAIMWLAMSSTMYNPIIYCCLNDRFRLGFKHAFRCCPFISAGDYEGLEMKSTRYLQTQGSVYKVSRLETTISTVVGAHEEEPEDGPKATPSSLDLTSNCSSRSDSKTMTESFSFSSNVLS

panel of 68 receptors [10] = biological target: panel of 68 receptors (Homo sapiens, UniProt P46098); conditions: Serotonin (5-Hydroxytryptamine) 5-HT3, hum, 10 μM
panel of 68 receptors [11] = biological target: panel of 68 receptors (Homo sapiens, UniProt P25929); conditions: Neuropeptide Y Y1, hum, 10 μM
panel of 68 receptors [12] = biological target: panel of 68 receptors (Homo sapiens, UniProt P41145); conditions: Opiate κ(OP2, KOP), hum, 10 μM
panel of 68 receptors [13] = biological target: panel of 68 receptors (Homo sapiens, UniProt P07550); conditions: Adrenergic β2, hum, 10 μM
panel of 68 receptors [14] = biological target: panel of 68 receptors (Homo sapiens, UniProt P48039); conditions: Melatonin MT1, hum, 10 μM
Sequence of panel of 68 receptors (Homo sapiens, UniProt P48039) (P48039 whole entry): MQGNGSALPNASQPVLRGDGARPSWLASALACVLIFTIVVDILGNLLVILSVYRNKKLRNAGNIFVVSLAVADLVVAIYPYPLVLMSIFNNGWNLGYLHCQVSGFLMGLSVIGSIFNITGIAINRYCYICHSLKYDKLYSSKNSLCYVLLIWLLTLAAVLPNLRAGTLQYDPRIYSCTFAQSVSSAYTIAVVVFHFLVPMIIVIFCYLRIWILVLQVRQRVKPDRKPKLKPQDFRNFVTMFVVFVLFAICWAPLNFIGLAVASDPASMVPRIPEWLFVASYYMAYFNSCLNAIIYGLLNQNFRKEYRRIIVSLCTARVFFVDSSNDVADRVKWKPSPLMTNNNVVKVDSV

panel of 68 receptors [15] = biological target: panel of 68 receptors (Homo sapiens, UniProt P08913); conditions: Adrenergic α2A, hum, 10 μM
Sequence of panel of 68 receptors (Homo sapiens, UniProt P08913) (P08913 whole entry): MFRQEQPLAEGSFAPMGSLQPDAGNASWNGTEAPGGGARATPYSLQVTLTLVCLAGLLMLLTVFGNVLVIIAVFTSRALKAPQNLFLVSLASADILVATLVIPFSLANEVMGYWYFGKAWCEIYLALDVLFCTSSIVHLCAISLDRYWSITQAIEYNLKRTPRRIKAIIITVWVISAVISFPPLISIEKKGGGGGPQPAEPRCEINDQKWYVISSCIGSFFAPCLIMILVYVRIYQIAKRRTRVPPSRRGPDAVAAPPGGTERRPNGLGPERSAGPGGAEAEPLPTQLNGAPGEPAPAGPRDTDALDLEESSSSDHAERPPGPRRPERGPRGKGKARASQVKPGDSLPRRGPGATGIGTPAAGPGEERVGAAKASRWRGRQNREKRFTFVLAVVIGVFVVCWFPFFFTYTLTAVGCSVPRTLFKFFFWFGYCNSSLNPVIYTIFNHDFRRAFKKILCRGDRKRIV

panel of 68 receptors [16] = biological target: panel of 68 receptors (Homo sapiens, UniProt P08172); conditions: Muscarinic M2, hum, 10 μM
Sequence of panel of 68 receptors (Homo sapiens, UniProt P08172) (P08172 whole entry): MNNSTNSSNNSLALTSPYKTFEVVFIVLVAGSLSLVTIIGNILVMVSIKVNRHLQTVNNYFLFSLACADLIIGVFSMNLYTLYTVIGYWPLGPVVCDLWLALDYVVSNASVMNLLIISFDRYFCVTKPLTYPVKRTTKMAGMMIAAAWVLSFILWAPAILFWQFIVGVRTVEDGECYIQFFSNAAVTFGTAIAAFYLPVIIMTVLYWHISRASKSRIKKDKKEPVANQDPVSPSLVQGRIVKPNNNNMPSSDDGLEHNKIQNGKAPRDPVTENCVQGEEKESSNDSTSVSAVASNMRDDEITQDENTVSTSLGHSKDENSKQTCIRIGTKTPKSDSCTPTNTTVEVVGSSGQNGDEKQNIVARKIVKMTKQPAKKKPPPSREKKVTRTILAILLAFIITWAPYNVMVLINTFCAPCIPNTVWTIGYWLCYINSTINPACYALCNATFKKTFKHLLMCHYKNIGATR

panel of 68 receptors [17] = biological target: panel of 68 receptors (Homo sapiens, UniProt P49146); conditions: Neuropeptide Y Y2, hum, 10 μM
panel of 68 receptors [18] = biological target: panel of 68 receptors (Homo sapiens, UniProt P30542); conditions: Adenosine A1, hum, 10 μM
panel of 68 receptors [19] = biological target: panel of 68 receptors (Homo sapiens, UniProt P04150); conditions: Glucocorticoid, hum, 10 μM
Sequence of panel of 68 receptors (Homo sapiens, UniProt P04150) (P04150 whole entry): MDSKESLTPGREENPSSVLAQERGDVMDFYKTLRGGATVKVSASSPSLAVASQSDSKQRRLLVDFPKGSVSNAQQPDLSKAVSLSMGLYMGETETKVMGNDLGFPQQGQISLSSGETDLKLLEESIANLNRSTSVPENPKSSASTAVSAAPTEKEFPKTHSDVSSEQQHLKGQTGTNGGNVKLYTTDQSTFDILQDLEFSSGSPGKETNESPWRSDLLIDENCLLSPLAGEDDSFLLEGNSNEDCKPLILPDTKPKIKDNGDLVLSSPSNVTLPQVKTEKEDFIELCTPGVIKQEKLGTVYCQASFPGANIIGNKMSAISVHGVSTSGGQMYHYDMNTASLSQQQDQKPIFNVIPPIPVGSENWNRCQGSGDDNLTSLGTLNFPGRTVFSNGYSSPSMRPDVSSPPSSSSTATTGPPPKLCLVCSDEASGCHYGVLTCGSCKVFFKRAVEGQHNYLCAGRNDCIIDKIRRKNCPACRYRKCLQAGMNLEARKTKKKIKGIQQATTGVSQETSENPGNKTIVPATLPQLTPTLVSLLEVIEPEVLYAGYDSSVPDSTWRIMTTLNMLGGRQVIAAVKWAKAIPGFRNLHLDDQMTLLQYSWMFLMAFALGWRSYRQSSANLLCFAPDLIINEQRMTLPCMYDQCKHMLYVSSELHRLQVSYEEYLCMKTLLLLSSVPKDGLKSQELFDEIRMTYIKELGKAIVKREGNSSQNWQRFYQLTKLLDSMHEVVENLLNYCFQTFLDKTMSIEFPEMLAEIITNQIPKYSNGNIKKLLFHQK

panel of 68 receptors [20] = biological target: panel of 68 receptors (Rattus norvegicus, UniProt Q02294); conditions: Calcium Channel N-Type, rat, 10 μM
panel of 68 receptors [21] = biological target: panel of 68 receptors (Homo sapiens, UniProt P29274); conditions: Adenosine A2A, hum, 10 μM
panel of 68 receptors [22] = biological target: panel of 68 receptors (Homo sapiens, UniProt P25101); conditions: Endothelin ETA, hum, 10 μM
Sequence of panel of 68 receptors (Homo sapiens, UniProt P25101) (P25101 21-427): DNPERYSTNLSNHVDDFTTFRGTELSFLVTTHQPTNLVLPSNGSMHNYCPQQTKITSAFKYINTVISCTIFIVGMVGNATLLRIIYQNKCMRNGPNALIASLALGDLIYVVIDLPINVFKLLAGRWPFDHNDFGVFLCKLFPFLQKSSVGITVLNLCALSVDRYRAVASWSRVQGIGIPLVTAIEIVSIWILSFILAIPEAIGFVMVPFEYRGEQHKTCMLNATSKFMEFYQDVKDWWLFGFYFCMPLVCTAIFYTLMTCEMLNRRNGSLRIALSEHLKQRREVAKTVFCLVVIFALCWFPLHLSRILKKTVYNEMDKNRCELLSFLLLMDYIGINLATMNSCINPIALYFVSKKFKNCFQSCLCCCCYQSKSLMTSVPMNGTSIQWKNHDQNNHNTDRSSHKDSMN

panel of 68 receptors [23] = biological target: panel of 68 receptors (Homo sapiens, UniProt P03372); conditions: Estrogen ERα, hum, 10 μM
panel of 68 receptors [24] = biological target: panel of 68 receptors (Homo sapiens, UniProt P08908); conditions: Serotonin (5-Hydroxytryptamine) 5-HT1A, hum, 10 μM
panel of 68 receptors [25] = biological target: panel of 68 receptors (Rattus norvegicus, UniProt P43140); conditions: Adrenergic α1A, rat, 10 μM
panel of 68 receptors [26] = biological target: panel of 68 receptors (Homo sapiens, UniProt Q9UBS5); conditions: GABAB1A, hum, 10 μM
panel of 68 receptors [27] = biological target: panel of 68 receptors (Homo sapiens, UniProt P25100); conditions: Adrenergic α1D, hum, 10 μM
panel of 68 receptors [28] = biological target: panel of 68 receptors (Homo sapiens, UniProt P02708); conditions: Nicotinic Acetylcholine α1, Bungarotoxin, hum, 10 μM
Sequence of panel of 68 receptors (Homo sapiens, UniProt P02708) (P02708 21-457): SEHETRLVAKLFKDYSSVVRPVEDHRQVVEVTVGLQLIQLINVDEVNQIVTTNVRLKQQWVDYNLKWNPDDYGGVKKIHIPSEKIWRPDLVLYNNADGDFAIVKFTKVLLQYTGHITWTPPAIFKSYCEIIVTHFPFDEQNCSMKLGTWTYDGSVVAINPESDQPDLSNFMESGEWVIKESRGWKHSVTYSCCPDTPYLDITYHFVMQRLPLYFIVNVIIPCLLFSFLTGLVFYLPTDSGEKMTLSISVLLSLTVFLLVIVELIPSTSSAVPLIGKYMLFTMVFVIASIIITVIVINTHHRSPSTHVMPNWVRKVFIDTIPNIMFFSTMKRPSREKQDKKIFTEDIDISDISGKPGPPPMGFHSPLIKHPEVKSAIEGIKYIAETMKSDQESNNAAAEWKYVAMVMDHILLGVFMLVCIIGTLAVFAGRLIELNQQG

panel of 68 receptors [29] = biological target: panel of 68 receptors (Homo sapiens, UniProt Q9Y271); conditions: Leukotriene, Cysteinyl CysLT1, hum, 10 μM
panel of 68 receptors [30] = biological target: panel of 68 receptors (Homo sapiens, UniProt P35372); conditions: Opiate μ(OP3, MOP), hum, 10 μM

SMILES: CCOc1ccc(-c2cc(NC(=O)c3c(F)cccc3F)c(C(=O)O)s2)cc1 [ML317, 3-(2,6-difluorobenzamido)-5-(4-ethoxyphenyl)thiophene-2-carboxylic acid]
- Papp (PAMPA permeability; Donor pH 5.0, Acceptor pH 7.4, RT): 140 nm/s
- Papp (PAMPA permeability; Donor pH 6.2, Acceptor pH 7.4, RT): 2090 nm/s
- Papp (PAMPA permeability; pH 7.4, Donor pH 7.4, Acceptor pH 7.4, RT): 520 nm/s
- Plasma Stability, % remaining at 3 hr (Plasma stability, human): 95.3 % remaining
- Inhibition across off-target panel (panel of 68 receptors [1]; 10 μM): < 50%
- Inhibition across off-target panel (panel of 68 receptors [1]; 10 μM, listed as DU011, 10 µM): < 32%
- Plasma Stability, % remaining at 3 hr (Plasma stability, mouse): 78.4 % remaining
- Plasma Protein Binding (% Bound) ([2]; 1 μM): 99.68 % Bound
- Plasma Protein Binding (% Bound) ([2]; 10 μM): 99.85 % Bound

SMILES: CCOc1ccc(-c2cc(NC(=O)c3c(F)cccc3F)c(C(=O)O)s2)cc1 [KUC107784N-02]
- % Inh. (panel of 68 receptors [3]): 2%
- % Inh. (panel of 68 receptors [4]): −11%
- % Inh. (panel of 68 receptors [5]): 3%
- % Inh. (panel of 68 receptors [6]): 5%
- % Inh. (panel of 68 receptors [7]): 0%
- % Inh. (panel of 68 receptors [8]): 3%
- % Inh. (panel of 68 receptors [9]): 7%
- % Inh. (panel of 68 receptors [10]): −11%
- % Inh. (panel of 68 receptors [1]; 10 µM): 6%
- % Inh. (panel of 68 receptors [1]; Calcium Channel L-Type, Benzothiazepine, rat, 10 μM): 2%
- % Inh. (panel of 68 receptors [1]; Calcium Channel L-Type, Dihydropyridine, rat, 10 μM): 32%
- % Inh. (panel of 68 receptors [1]; Dopamine D2S, hum, 10 μM): 4%
- % Inh. (panel of 68 receptors [1]; Dopamine D42, hum, 10 μM): 7%
- % Inh. (panel of 68 receptors [1]; GABAA, Flunitrazepam, Central, rat, 10 μM): 16%
- % Inh. (panel of 68 receptors [1]; GABAA, Muscimol, Central, rat, 10 μM): 9%
- % Inh. (panel of 68 receptors [1]; Glutamate, Kainate, rat, 10 μM): 11%
- % Inh. (panel of 68 receptors [1]; Glutamate, NMDA, Agonism, rat, 10 μM): 9%
- % Inh. (panel of 68 receptors [1]; Glutamate, NMDA, Glycine, rat, 10 μM): −1%
- % Inh. (panel of 68 receptors [1]; Glutamate, NMDA, Phencyclidine, rat, 10 μM): 6%
- % Inh. (panel of 68 receptors [1]; Imidazoline I2, Central, rat, 10 μM): −1%
- % Inh. (panel of 68 receptors [1]; Nicotinic Acetylcholine, hum, 10 μM): 13%
- % Inh. (panel of 68 receptors [1]; Phorbol Ester, mouse, 10 μM): −1%
- % Inh. (panel of 68 receptors [1]; Potassium Channel [KATP], ham, 10 μM): 9%
- % Inh. (panel of 68 receptors [1]; Purinergic P2X, rabbit, 10 μM): −2%
- % Inh. (panel of 68 receptors [1]; Purinergic P2Y, rat, 10 μM): 8%
- % Inh. (panel of 68 receptors [1]; Rolipram, rat, 10 μM): 9%
- % Inh. (panel of 68 receptors [1]; Thyroid Hormone, rat, 10 μM): −3%
- % Inh. (panel of 68 receptors [1]; Transporter, GABA, rat, 10 μM): 10%
- % Inh. (panel of 68 receptors [11]): 5%
- % Inh. (panel of 68 receptors [12]): 14%
- % Inh. (panel of 68 receptors [13]): 3%
- % Inh. (panel of 68 receptors [14]): 3%
- % Inh. (panel of 68 receptors [15]): −1%
- % Inh. (panel of 68 receptors [16]): −8%
- % Inh. (panel of 68 receptors [17]): −3%
- % Inh. (panel of 68 receptors [18]): 28%
- % Inh. (panel of 68 receptors [19]): −2%
- % Inh. (panel of 68 receptors [20]): −16%
- % Inh. (panel of 68 receptors [21]): 19%
- % Inh. (panel of 68 receptors [22]): 8%
- % Inh. (panel of 68 receptors [23]): 9%
- % Inh. (panel of 68 receptors [24]): 4%
- % Inh. (panel of 68 receptors [25]): 16%
- % Inh. (panel of 68 receptors [26]): 5%
- % Inh. (panel of 68 receptors [27]): 2%
- % Inh. (panel of 68 receptors [28]): 8%
- % Inh. (panel of 68 receptors [29]): 0%
- % Inh. (panel of 68 receptors [30]): 3%

Source: US9688653B2, “Ethoxyphenyl thienyl compounds and methods for the treatment of bacterial infections” (Duke University, priority 2013, dated 2017)
